Assays:
[1] = Pharmacokinetic study of compounds in mice (brain exposure); type: in vivo, male C57BL/6 mice; conditions: oral, 5 mg/kg
Procedure: Healthy male C57BL/6 mice (8-12 weeks old) weighing between 17 to 35 g were procured from Global, India. Temperature and humidity were maintained at 22±f3° C. and 30-70%, respectively and illumination was controlled to give a sequence of 12 hr light and 12 hr dark cycle. Temperature and humidity were recorded by auto-controlled data logger system. All the animals were provided laboratory rodent diet. Reverse osmosis water treated with ultraviolet light was provided ad libitum.
Protocol A: Twenty-four male mice were divided into two groups as; Group 1: 30 mg/kg/IP; Plasma and brain; Number of animals=12: Animal #1-12. Group 2: 30 mg/kg/PO; Plasma and brain; Number of animals=12; Animal #13-24. Animals in Group 1 were administered intraperitoneally with solution formulation of PSY-05-00074-001 in 5% NMP, 5% Solutol HS-15 and 90% normal saline at 30 mg/kg dose. Animals in Group 2 were administered orally with solution formulation of PSY-05-00074-001 in 5% NMP, 5% Solutol HS-15 and 90% normal saline at 30 mg/kg dose. Blood samples (approximately 60 μL) were collected under light isoflurane anesthesia from retro orbital plexus at 0.25, 0.5, 1, 2, 4 and 8 hr (IP and PO). Plasma samples were separated by centrifugation of whole blood and stored below −70° C. until bioanalysis. Immediately after collection of blood from intraperitoneal and oral group animals, animals were euthanized with excess CO2 and brain samples were collected from set of two mice at each time point. Brain samples were divided into two parts. Half brain samples were homogenized using ice-cold phosphate buffer saline (pH—7.4) and homogenates were stored below −70±10° C. until analysis. Total homogenate volume was three times the brain weight. Other part of brain was stored below −70±10° C. for further analysis. All samples were processed for analysis by protein precipitation using acetonitrile and analyzed with fit-for-purpose LC/MS/MS method (LLOQ—2.02 ng/mL for plasma and 6.06 ng/g for brain). Pharmacokinetic parameters were calculated using the non-compartmental analysis tool of Phoenix WinNonlin®.
Protocol B: Thirty six mice were included into the study and divided in to three groups as Group 1 (n=12), Group 2 (n=12) and Group 3 (n=12) with n=2 mice per time-point design. Animals in Group 1 were administered intravenously with solution formulation of PSY-05-00414-001 at 5 mg/kg dose. Animals in Group 2 were administered orally with solution formulation of PSY-05-00414-001 at a dose of 5 mg/kg. Animals in Group 3 were administered intraperitoneally with solution formulation of PSY-05-00414-001 at 5 mg/kg dose. The formulation vehicle for all the three groups was 5% NMP, 5% Solutol HS-15 and 90% normal saline. Blood samples (approximately 60 μL) were collected under light isoflurane anesthesia from two mice at 0.25, 0.5, 1, 2, 4 and 8 h. Plasma was harvested by centrifugation of blood and stored at −70±10° C. until analysis. After blood collection, brain was perfused and isolated at 0.25, 0.5, 1, 2, 4 and 8 h. Brain samples were dipped thrice in ice-cold phosphate buffer saline, blotted dry and cut in to two equal portion. Half-brain samples from each time-point were weighed and homogenized using ice-cold phosphate buffer saline with twice volume of brain weight making the total homogenate three volumes and stored below −70±10° C. until analysis. Remaining half-portions of brain samples was snap freeze and kept in −70±10° C. until further confirmation from client. Plasma and brain samples were quantified by fit-for-purpose LC-MS/MS method (LLOQ: 1.01 ng/mL for plasma and 2.02 ng/mL for brain).
Protocol C: Fifty four male mice were included in study and divided in to three groups as Group 1 (n=18), Group 2 (n=18) and Group 3 (n=18) with 3 mice/time point design. Animals from Group 1, Group 2 and Group 3 were administered by intravenous, oral and intraperitoneal route with solution formulation of PSY-05-00451-001 at 5 mg/kg dose, respectively. […]

[2] = target: Monoacylglycerol Lipase (MAGL) (Homo sapiens (Human), UniProt Q99685); experiment: MAGL inhibition potency (IC50) assay with 4NPA substrate; type: biochemical; conditions: Method 13: Reaction Biology MAGL enzyme, 12 nM; read-out: MAGL Potency (Detection Method)
Monoacylglycerol Lipase (MAGL), sequence (Q99685 2-303): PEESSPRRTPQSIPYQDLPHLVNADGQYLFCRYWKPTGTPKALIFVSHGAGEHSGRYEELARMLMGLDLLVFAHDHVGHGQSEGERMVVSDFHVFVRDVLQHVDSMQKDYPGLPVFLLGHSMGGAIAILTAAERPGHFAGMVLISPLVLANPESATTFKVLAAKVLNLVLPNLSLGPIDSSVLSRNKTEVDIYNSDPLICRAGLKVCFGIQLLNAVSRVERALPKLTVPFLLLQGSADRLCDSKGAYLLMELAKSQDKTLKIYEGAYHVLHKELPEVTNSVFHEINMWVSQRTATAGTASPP

Row | SMILES | AUClast [1] [ng·h/mL] | Cmax [1] [ng/g] | IC50 [2] [nM]
1 | Cc1cnn(C2CC3(C2)CN(C(=O)c2cc(O)ccc2F)C3)c1-c1cc(F)ccc1F (single isomer, unassigned) [Compound 476, (6-(5-(2,5-Difluorophenyl)-4-methyl-1H-pyrazol-1-yl)-2-azaspiro [3.3]heptan-2-yl) (2-fluoro-5-hydroxyphenyl) methanone] | 223.64 | 72 | 50 to 150
2 | O=C(c1ccc(F)cc1OC1CC1)N1CC2(CC(n3nc(-c4ccccc4C(F)(F)F)cc3C(F)(F)F)C2)C1 (single isomer, unassigned) [Compound 451, (2-cyclopropoxy-4-fluorophenyl)(6-{5-(trifluoromethyl)-3-[o-(trifluoromethyl)phenyl]-1-pyrazolyl}-2-aza-2-spiro[3.3]heptyl)methanone] | 1204.22 | 271.39 | 

Source: patent US20240308985A1 (Psy Therapeutics, Inc., priority 2021, published 2024)
